Here are results for five compounds from ChEMBL document CHEMBL1201862, “PubChem BioAssay data set” (2004).

By GI50 is commonly meant the concentration that inhibits growth by half.

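Grown in 96-well plates, cells were treated for 48 hours with each compound at five concentrations. Insufficient inhibition: endpoint recorded as highest concentration tested. Abbreviation: GI50, concentration required for 50% inhibition of growth.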 The source made the active and inactive calls. No stated cut-off is given here; in the data, active = GI50 up to about 1.1 µM and inactive = higher. Where only a bound is given, the exact number is not on record here.

Among the test systems are RPMI-8226; K562; BT-549; IGROV-1; MDA-MB-231; SNB-75; SF-295; NCI/ADR-RES; CCRF-CEM; HCC 2998; SW-620; HCT-15; ACHN; SN12C; NCI-H226; RXF 393; HOP-92; UACC-257; HCT-116.
What all share (assay): DTP human tumour cell line panel, 48 h

For the compound `COc1ccc2c(c1)[nH]c1c3ccc(OC)cc3oc(=O)c21`, the GI50 in the experiment on RPMI-8226 is 60.7 µM (inactive); in the experiment with K562, > 100 µM (inactive); in the experiment with BT-549 it was 57.3 µM (inactive); in the experiment with IGROV-1, > 100 µM (inactive); with MDA-MB-231, 92 µM (inactive); in the experiment with SNB-75, 25.1 µM (inactive). Also, the GI50 in the experiment with SF-295 is > 100 µM (inactive); in the experiment on NCI/ADR-RES, > 100 µM (inactive); with CCRF-CEM, > 100 µM (inactive); in the experiment with HCC 2998, > 100 µM (inactive); in the experiment on SW-620, > 100 µM (inactive); with HCT-15, 5.27 µM. The GI50 in the experiment on ACHN, in the experiment on SN12C, in the experiment with NCI-H226, in the experiment on RXF 393, with HOP-92 and in the experiment on UACC-257 was > 100 µM (inactive) each time. In the experiment with HCT-116, the GI50 is > 100 µM (inactive).

For the compound `CCCC1=C(OC)C(=O)c2c(C)cc(Cl)nc2C1=O`, the GI50 is 2.16 µM (inactive) in the experiment on RPMI-8226; 2.02 µM (inactive) in the experiment with K562; 13.6 µM (inactive) in the experiment with BT-549; 11.7 µM (inactive) with IGROV-1; 5.53 µM (inactive) in the experiment on MDA-MB-231; 7.62 µM (inactive) in the experiment on SNB-75. Moreover, the GI50 with SF-295 was 14.7 µM (inactive); with NCI/ADR-RES, 4.55 µM (inactive); with CCRF-CEM, 0.286 µM (active); in the experiment with HCC 2998, 7.62 µM (inactive); in the experiment with SW-620, 3.24 µM (inactive); with HCT-15 it was 3.05 µM. Further, the GI50 in the experiment on ACHN is 6.92 µM (inactive); in the experiment on SN12C, 4.14 µM (inactive); in the experiment with NCI-H226, 16.7 µM (inactive); with RXF 393 it was 7.67 µM (inactive); with HOP-92, 5.79 µM (inactive); with UACC-257, 6.53 µM (inactive). For the same compound, the GI50 in the experiment with HCT-116 is 2.62 µM (inactive).

For `CC1=NNC(=O)[C@H]2[C@H]1CCC1[C@@H]2CC[C@]2(C)[C@@H](O)CC[C@@H]12` (stereo not given in full), the GI50 with RPMI-8226 was > 100 µM (inactive); in the experiment with K562, > 100 µM (inactive); in the experiment on BT-549 it was > 100 µM (inactive); in the experiment on IGROV-1, > 100 µM (inactive); in the experiment on MDA-MB-231 it was > 100 µM (inactive); in the experiment with SNB-75 it was 12.6 µM (inactive). Further, the GI50 was > 100 µM (inactive) with SF-295; > 100 µM (inactive) in the experiment with NCI/ADR-RES; > 100 µM (inactive) in the experiment on CCRF-CEM; > 100 µM (inactive) with HCC 2998; > 100 µM (inactive) with SW-620; above 100 µM in the experiment on HCT-15. Further, the GI50 in the experiment on ACHN, in the experiment with SN12C, with NCI-H226, in the experiment on RXF 393, in the experiment on HOP-92 and in the experiment with UACC-257 was > 100 µM (inactive) in each case. In addition, the GI50 with HCT-116 is > 100 µM (inactive).

In the case of `CC(/C=N/N=C1NCCCCN1)=N\N=C1NCCCCN1`, the GI50 is > 100 µM (inactive) in the experiment on RPMI-8226; 37.1 µM (inactive) in the experiment on K562; > 100 µM (inactive) in the experiment on BT-549; > 100 µM (inactive) in the experiment with IGROV-1; > 100 µM (inactive) in the experiment on MDA-MB-231; > 100 µM (inactive) in the experiment on SNB-75. Moreover, the GI50 is 47.2 µM (inactive) in the experiment on SF-295; > 100 µM (inactive) in the experiment on NCI/ADR-RES; > 100 µM (inactive) in the experiment with CCRF-CEM; > 100 µM (inactive) with HCC 2998; > 100 µM (inactive) with SW-620; above 100 µM in the experiment on HCT-15. Also, the GI50 in the experiment on ACHN is > 100 µM (inactive); in the experiment with SN12C, > 100 µM (inactive); in the experiment on NCI-H226, > 100 µM (inactive); in the experiment with RXF 393 it was > 100 µM (inactive); in the experiment with HOP-92 it was 37.9 µM (inactive); in the experiment with UACC-257 it was 47.6 µM (inactive). Also, the GI50 in the experiment on HCT-116 is 86.3 µM (inactive).

Consider `CCCCCCCCCCCCCCCCCCNc1ccn(C2OC(COP(=O)(O)OCC3OC(n4cc(F)c(NCCCCCCCCCCCCCCCCCC)nc4=O)CC3O)C(O)C2O)c(=O)n1` (stereo not given), for which the GI50 is 66.4 µM (inactive) with RPMI-8226; > 100 µM (inactive) with K562; > 100 µM (inactive) with BT-549; > 100 µM (inactive) in the experiment with IGROV-1; 78.9 µM (inactive) in the experiment on MDA-MB-231; > 100 µM (inactive) in the experiment with SNB-75. Also, the GI50 with SF-295 was > 100 µM (inactive); with NCI/ADR-RES, > 100 µM (inactive); in the experiment with CCRF-CEM, > 100 µM (inactive); in the experiment on HCC 2998, 63.5 µM (inactive); in the experiment on SW-620, > 100 µM (inactive); with HCT-15, above 100 µM. In addition, the GI50 was > 100 µM (inactive) in the experiment with ACHN; > 100 µM (inactive) in the experiment with SN12C; > 100 µM (inactive) in the experiment on NCI-H226; > 100 µM (inactive) with RXF 393; 19.3 µM (inactive) in the experiment with HOP-92; > 100 µM (inactive) in the experiment with UACC-257. Also, the GI50 with HCT-116 is > 100 µM (inactive).
